From PubChem BioAssay (NCI)
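Method: 48-hour compound exposure of cells in 96-well plates, five concentrations, linear interpolation of endpoints. At the TGI there is no net growth.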

How the values were obtained:
Assay in all cases: DTP human tumour cell line panel, 48 h
[1] = system: HOP-62 NSCLC
[2] = system: HCT-15 colon
[3] = system: SR leukemia
[4] = system: MDA-MB-435
[5] = system: MDA-MB-231 breast
[6] = system: DU-145 prostate
[7] = system: IGROV1 ovarian
[8] = system: U251 CNS
[9] = system: OVCAR-3 ovarian
[10] = system: NCI-H23 lung
[11] = system: OVCAR-4 ovarian
[12] = system: COLO 205 colon
[13] = system: SK-MEL-2 melanoma
[14] = system: SF-268 CNS
[15] = system: HS 578T breast
[16] = system: OVCAR-5 ovarian
[17] = system: T-47D breast
[18] = system: MDA-N
[19] = system: SF-539 CNS
[20] = system: UACC-62 melanoma

| Compound | TGI [1] | TGI [2] | TGI [3] | TGI [4] | TGI [5] | TGI [6] | TGI [7] | TGI [8] | TGI [9] | TGI [10] | TGI [11] | TGI [12] | TGI [13] | TGI [14] | TGI [15] | TGI [16] | TGI [17] | TGI [18] | TGI [19] | TGI [20] |
| --- | --- | --- | --- | --- | --- | --- | --- | --- | --- | --- | --- | --- | --- | --- | --- | --- | --- | --- | --- | --- |
| O=C(CCCN1CCC2(CC1)NC(=O)c1ccccc1O2)c1ccc(F)cc1 | > 100 µM | > 100 µM | > 100 µM | > 100 µM | > 100 µM | > 100 µM | > 100 µM | > 100 µM | > 100 µM | > 100 µM | > 100 µM | > 100 µM | > 100 µM | > 100 µM | > 100 µM | > 100 µM | > 100 µM | > 100 µM | > 100 µM | > 100 µM |
| O=C1Nc2ccccc2S/C1=C\c1ccccc1C(F)(F)F | > 100 µM | > 100 µM | > 100 µM | > 100 µM | > 100 µM | > 100 µM | > 100 µM | > 100 µM | > 100 µM |  | 49.4 µM | > 100 µM | > 100 µM | > 100 µM | > 100 µM | > 100 µM | > 100 µM | > 100 µM | > 100 µM | > 100 µM |
| C=CCCCC1SC2=C(CC)CCCN2C1=O (centres undefined) | > 100 µM | > 100 µM | > 100 µM | > 100 µM | > 100 µM | > 100 µM | > 100 µM | > 100 µM | > 100 µM | > 100 µM | > 100 µM | > 100 µM | > 100 µM | > 100 µM | > 100 µM | > 100 µM | > 100 µM | > 100 µM | > 100 µM | > 100 µM |
| Cc1ccc(/C(=C\C(=O)C(=O)NC23CC4CC(CC(C4)C2)C3)Sc2ccccc2)cc1 | > 10 µM | > 10 µM | > 10 µM | > 10 µM | > 10 µM | > 10 µM | > 10 µM | > 10 µM | > 10 µM | > 10 µM | > 10 µM | > 10 µM | > 10 µM | > 10 µM | > 10 µM | > 10 µM | > 10 µM | > 10 µM | > 10 µM |  |
| c1ccc(C2SCc3nc4cc5ccccc5cc4n32)cc1 (centres undefined) | > 100 µM | > 100 µM | > 100 µM | > 100 µM | > 100 µM | > 100 µM | > 100 µM | > 100 µM | > 100 µM | > 100 µM | > 100 µM | > 100 µM | > 100 µM | > 100 µM | > 100 µM | > 100 µM | > 100 µM | > 100 µM | > 100 µM | > 100 µM |
| O=C(O)c1ccccc1CC1Cc2ccc3c(c2C1=O)CCC3 (centres undefined) | > 100 µM | > 100 µM | > 100 µM | > 100 µM | > 100 µM | > 100 µM | > 100 µM | > 100 µM | > 100 µM | > 100 µM | > 100 µM | > 100 µM | > 100 µM | > 100 µM | > 100 µM | > 100 µM | > 100 µM | > 100 µM | > 100 µM | > 100 µM |
| C=C1CCCCCCCCCCC12SCCC2CCCCSC (centres undefined) | 40.9 µM | 73.4 µM | 53.4 µM | 75.7 µM | 39 µM | > 100 µM | 49.9 µM | 33.8 µM | 34.1 µM | 56.9 µM | > 100 µM | 33.6 µM | 37.7 µM | 67.4 µM | > 100 µM | 40 µM | 43.8 µM | > 100 µM | 38.3 µM | 76 µM |
| O=C1Nc2ccccc2S/C1=C\c1cccc(C(F)(F)F)c1 | > 100 µM | > 100 µM | > 100 µM | > 100 µM | > 100 µM | > 100 µM | > 100 µM | > 100 µM | > 100 µM |  | > 100 µM | > 100 µM | > 100 µM | > 100 µM | > 100 µM | > 100 µM | > 100 µM | > 100 µM | > 100 µM | > 100 µM |
| COc1cc(C=C2N=C(c3ccccc3)N(n3c(-c4ccccc4)nc4ccccc4c3=O)C2=O)cc(OC)c1OC | 29.9 µM | > 100 µM | > 100 µM | 55.3 µM | 53.1 µM | 79.9 µM | 94.4 µM |  | 54 µM | 56.6 µM | 96.5 µM | 52.8 µM | 43.4 µM | 69 µM | 51.6 µM | > 100 µM | 50.2 µM | 92.6 µM | 45.3 µM | 51 µM |
| Cc1cnc(-c2c[nH]c3ccccc23)nc1-c1c[nH]c2ccccc12 | 24.8 µM | 27 µM | 33.9 µM | 19.8 µM | 7.78 µM | 20.1 µM | 14.8 µM | 19.7 µM | 21.7 µM |  | 24.3 µM | 16.8 µM | 20.6 µM | 35.6 µM | > 100 µM | 20.9 µM | 9.15 µM | 15.8 µM | 30.7 µM | 17.4 µM |
| Oc1ccc2oc3c(O)c4ccccc4cc3c2c1 | > 100 µM | 21.3 µM | 5.52 µM | 5.33 µM | 36 µM | 15.6 µM | 4.21 µM | 21.1 µM | 15.1 µM | 65.3 µM | 13 µM | 28 µM | 93 µM | 21.5 µM | > 100 µM |  | 55.4 µM | 9.89 µM | 3.91 µM | 1.67 µM |
